For one assay, the system named is U87 human GBM cells. Nature of the assay: U87 viability (Alamar Blue). Format: cell-based. As to conditions: for IC50, U87 viability: U87 express low amounts of Olig2. How it is done: (§1) Culture and assay system: Ink4a/arfEGFR-VIII mouse cells and U87 human GBM cells were cultured in DMEM medium with 10% FBS. GBM4 and GBM8 patient-derived tumor neurosphere lines were cultured in stem cell medium supplemented with FGF and EGF. Primary normal human astrocytes (NHA) were cultured in astrocyte medium (Life Technologies, Grand Island N.Y.) with EGF. Cytotoxicity of the compounds was assessed by […] (MTT) reduction assay (for Ink4a/arfEGFR-VIII cells) as described earlier (Rajesh M et al., Journal of the American Chemical Society 129:11408-11420 (2007)) or by Alamar Blue assay (for all other cell types). For the MTT reduction assay, Ink4a/arfEGFR-VIII cells were grown in 96-well plates at a concentration of ˜2000 cells per well overnight and all assays were conducted in DMEM medium with 10% FBS and additives. For studies with inhibitor compounds, 10 mM stocks were serially diluted in dimethyl sulfoxide and further diluted into culture media to give appropriate concentrations while minimizing precipitation associated with serial dilutions in medium alone. Inhibitors were added to cells and left in the media for 72 hours. Cell viability for Ink4a/arfEGFR VIII cells was quantified at 540 nm after the addition of MTT (Sigma-Aldrich). Results were expressed as: […]
(§2) For GBM4, GBM8, U87, and NHA cell lines, viability was quantified by Alamar Blue Assay. In this assay, cells were treated with inhibitor compounds as described and Alamar Blue added after 72 hours. Emission values at 590 nm were measured after the addition of Alamar Blue. Dose-response curves for MTT assays and Alamar Blue Assays were plotted and IC50 values were calculated by using GraphPad Prism (GraphPad Prism Software, Inc., La Jolla, Calif.).
Background: Alamar Blue is a resazurin reagent that responds to reducing activity.

Assay [1] has as its system normal human astrocytes (NHA). Kind of assay: primary astrocyte viability (Alamar Blue). Type of assay: cell-based. Conditions: for IC50, primary astrocyte viability: astrocytes express low amounts of Olig2. How it is done:
as §1, §2

The next assay has as its system p21. Kind of assay: expression of p21, direct genetic target of OLIG2 (qPCR). Format: cell-based, human. The text has this:
(§3) FIGS. 17A-17B. OLIG2 inhibitor affects expression of direct genetic targets of OLIG2. […] (FIG. 17A) Escalating OLIG2 inhibitor doses led to increased levels of p21.
(§4) mRNA was extracted from different cell lines with the AllPrep DNA/RNA Mini Kit (Qiagen, Inc.), followed by cDNA synthesis using the iScript cDNA Synthesis Kit (Bio-Rad, Inc). To investigate single-gene expression patterns, individual gene primers were purchased from Allele Biotechnology and Pharmaceuticals Inc. SYBR Green Real Time PCR master mixes were purchased from Roche Corporation. qPCR was performed with primers specific for OLIG2, p21, and OMG genes. Individual gene expression was normalized to expression of beta-Actin. Histograms show mean and standard error of the mean (SEM) from three separate experiments.
(In general: Quantitative PCR measures a nucleic acid by following its amplification.)

The subject of the next assay is OMG. Nature of the assay: expression of OMG, direct genetic target of OLIG2 (qPCR). Format: cell-based, human.
Description: as §3, §4

The next assay has as its system GBM4 cells. Kind of assay: GBM4 neurosphere viability (Alamar Blue). Format: cell-based, human. As to conditions: grown as neurospheres, inhibitor given alone. How it is done:
as §1, with “For studies with inhibitor compounds, 10 mM stocks were serially diluted in dimethyl sulfoxide and further diluted into culture media to give appropriate concentrations while minimizing precipitation associated with serial dilutions in medium alone. Inhibitors were added to cells and left in the media for 72 hours.” left out
(§5) For GBM4, GBM8, U87, and NHA cell lines, viability was quantified by Alamar Blue Assay. […] Emission values at 590 nm were measured after the addition of Alamar Blue. Dose-response curves for MTT assays and Alamar Blue Assays were plotted and IC50 values were calculated by using GraphPad Prism (GraphPad Prism Software, Inc., La Jolla, Calif.).

Another assay concerns GBM8 cells. Kind of assay: GBM8 neurosphere viability (Alamar Blue). Conditions: grown as neurospheres, inhibitor given alone. Format: cell-based, human. How it is done: as §1, with “For studies with inhibitor compounds, 10 mM stocks were serially diluted in dimethyl sulfoxide and further diluted into culture media to give appropriate concentrations while minimizing precipitation associated with serial dilutions in medium alone. Inhibitors were added to cells and left in the media for 72 hours.” left out
as §5

The next assay deals with GBM4 neurospheres. Kind of assay: GBM4 neurosphere formation, light microscopy. Format: cell-based, human. Conditions: 0.1 uM and 5 uM, 72 h.
[2] abbreviates: GBM4 cells, escalating doses (18 h in FIG. 17).

“Also recorded” adds a separate entry of the source.

In the case of `CCN1CCCC(Nc2cc(C)nc(NC(=N)Nc3ccc(Cl)c(Cl)c3)n2)C1` (stereo not shown) [SKOG-101], the “IC50, U87 viability” value in the assay with U87 human GBM cells was “high”. Also, in assay [1], the “IC50, primary astrocyte viability” value is “high”. Also, the P21 levels entry in the assay with p21 (FIG. 6, relative to vehicle control) is recorded as “rose markedly”. For the same molecule, the “levels of OMG” value with OMG (FIG. 7, relative to vehicle control) is reported as “went down markedly”.
Take `CCN1CCCC(Nc2cc(C)nc(NC(=N)Nc3ccc(Cl)c(Cl)c3)n2)C1` (stereo not shown) [SKOG-102]: the “suppression of GBM4 cells” value with GBM4 cells is “markedly suppressed; also recorded: active”. Further, the “suppression of GBM8 cells” value with GBM8 cells is reported as “markedly suppressed; also recorded: active”. The “IC50, U87 viability” value with U87 human GBM cells is given as “high”. In the assay on U87 human GBM cells (compared with GBM4/8 cells), the “suppression of U87 cells” value was “a higher dose was needed”. Besides, the “IC50 of NHA relative to GBM4 cells” value in assay [1] (NHA vs GBM4) was about 20 fold. Besides, in assay [1], the “IC50, primary astrocyte viability” value is on record as “high”. Moreover, the “inhibition of neurosphere formation in GBM4 cells (active / inactive compound)” value in the assay on GBM4 neurospheres is recorded as “active”. For the same molecule, the “expression of p21” value in the assay with p21 (setting [2]) is “increased in a dose-dependent manner”. In addition, the “expression of OMG” value with OMG (setting [2]) is “suppressed; also recorded: decline”.

(Values after US20170182049A1, “NOVEL THERAPEUTICS FOR BRAIN CANCER” (The Regents of the University of California, priority 2012, published 2017).)
